Tested on: GEMS receptors with CBPA11 (BclXL–LD3 and BclXLhigh variants), STAT3-driven SEAP in HEK293T cells
Assay: GEMS SEAP reporter assay, CBPA11 (BclXLhigh, LD3-v and BclXL-v variants) with A-1155463
Assay type: cell-based
Parameters: key to Raw data (SEAP) / SEAP, replicate values / Raw data of Figure 5b / Raw data Figure 5e / Raw data of Independent repeat of CBPA11-v1 vs CBPA11-v1-LD3v3 / Raw data of Independent repeat of CBPA11-v3 vs CBPA11-v3-LD3v3 / Raw data of Figure 5b, CBPA11-v1-LD3v3 (SEAP reporter raw value, single replicate) / Raw data of Figure 5b, CBPA11-v1 (SEAP reporter raw value, single replicate): SEAP activity in U/L in culture supernatant
Settings: SuppFigure 9c
Excerpt: To rationally design a CBP responding to a chemical input, we used BclXL as the druglow receptor, LD3 as the designed binder and a designed BclXL variant as the drughigh receptor (referred to as BclXLhigh) to construct a CBP responsive to BclXL inhibitors (Fig. 4a). To design BclXLhigh, we used a multistate design computational protocol described elsewhere[26] […] Thus, BclXLhigh-v(1–3) were chosen as the functional drughigh receptors, resulting in three A-1155463-controlled CBPs (referred to as CBPA11-v(1–3)) (Fig. 4c–e).
HEK293T cells were seeded in a 96-well plate 24 h before transfection. The transfection mix in each well consisted of 3 ng of constitutive human CMV promoter driven mammalian STAT3 expression vector (PhCMV-STAT3-pA), 30 ng of STAT3-induced reporter expression (OStat3-PhCMVmin-SEAP-pA) and 50 ng of expression vectors for each GEMS receptor chain (PSV40-IgK-(drughigh receptor)-EpoRm-IL-6RBm-pA and PSV40-IgK-(druglow receptor-GGGGSX3-LD3)-EpoRm-IL-6RBm-pA). For the specific drughigh receptor and druglow receptor used in the different cellular assays, they are indicated as wild type or with mutations. Then, plasmid DNA was mixed with 50 μl opti-MEM (Thermo Fisher) and 600 ng of polyethyleneimine (Polysciences, catalog no. 24765-1). For drug treatment experiments, drugs were added 12 h post-transfection and incubated with cells for 24 h before the SEAP reporter detection assay.
SEAP activity (U l^−1) in cell culture supernatants was quantified by kinetic measurements at 405 nm (1 minute per measurement for 30 cycles) of absorbance increase due to phosphatase-mediated hydrolysis of para-nitrophenyl phosphate (pNPP).
Binding affinities of SPR drug competition assays were calculated using three-parameter nonlinear regression in GraphPad Prism (v.8.3.0). Representative data of cell assays are presented as individual values and mean values (bars). n = 3 refers to biological replicates. All IC50 or EC50 values of cell assays reported were calculated using four-parameter nonlinear regression ± s.d. Bandpass features of cutoff concentrations and Bandwidth90% were estimated based on the curve fitted using bell-shaped curve nonlinear regression in GraphPad Prism (v.8.3.0). […]
Supplementary Figure 4: Design, screening and validation of BclXLhigh variants. a) Screening of BclXLhigh variants in the GEMS platform. […]
Dissociation constant measurement of BclXLhigh-v(1-3) and LD3. Equilibrium curves are fitted using […]
BclXLhigh-v1 (purple), BclXLhigh-v2 (blue), […]
a) Bcl2high-based bandpass filter designs were developed and to respond to different concentrations of […]
corresponding inhibitor. c) Screening of Bcl2high-based bandpass filter variants in the GEMS platform.
The designed binder LD3 was fused to the druglow-receptor (PSV40-IgK-Bcl2-LD3-EpoRm-IL-6RBm-pA) in one EpoR chain and Bcl2high variants with the insensitive Bcl2 (iBcl2) as control in the other EpoR chain (PSV40-IgK-Bcl2high-EpoRm-IL-6RBm-pA). HEK293T cells were transfected with indicated […]
the mean of six biological replicates ± s.d., overlaid with a scatter dot plot of the original data points.
(1 picture or pasted object on this page, not shown here)
Supplementary Figure 6: Binding affinities and drug resistances of Bcl2high-v(2,4,5) assessed by […]
a) Measurement of dissociation constants for Bcl2high-v(2,4,5) and LD3 interactions. Equilibrium curves […]
Bcl2high-v(2,4,5) measured by SPR. 5 μM of Bcl2 or indicated variants were mixed with 10 μM of […]
Bcl2high-v2 (red), Bcl2high-v4
Supplementary Figure 7: Screening of LD3 variants in CBPA11-v(1-3) and raw data of CBPA11-v(1,3) with LD3-v3 variant. a-c) Screening of LD3 and LD3-v(1-3) variants in complex with BclXL for more sensitive CBPA11-v1 (a), CBPA11-v2 (b), CBPA11-v3 (c) in the GEMS platform. The LD3 variants replaced the role of LD3 (PSV40-IgK-BclXL-LD3-v(1-3)-EpoRm-IL-6RBm-pA) in one EpoR chain and BclXLhigh-v(1-3) in the other EpoR chain (PSV40-IgK-BclXLhigh-V(1-3)-EpoRm-IL-6RBm-pA). HEK293T cells were transfected with […]

SMILES: CN(C)CC#Cc1ccc(OCCCc2sc(N3CCc4cccc(C(=O)Nc5nc6ccccc6s5)c4C3)nc2C(=O)O)c(F)c1 [A-1155463]
- Raw data (SEAP) (LD3, A-1155463 316 nM): 61.2138
- Normalized data (SEAP) (LD3, A-1155463 1000 nM): 55.4364
- Raw data (SEAP) (LD3, A-1155463 1000 nM): 44.3919
- Normalized data (SEAP) (LD3, A-1155463 3160 nM): 36.9566
- Raw data (SEAP) (LD3, A-1155463 3160 nM): 29.5938
- Normalized data (SEAP) (LD3, A-1155463 10000 nM): 17.181
- Raw data (SEAP) (LD3, A-1155463 10000 nM): 13.758
- Normalized data (SEAP) (LD3v1, A-1155463 1 nM): 5.697
- Raw data (SEAP) (LD3v1, A-1155463 1 nM): 3.397
- Normalized data (SEAP) (LD3v1, A-1155463 3.16 nM): 9.008
- Raw data (SEAP) (LD3v1, A-1155463 3.16 nM): 5.371
- Normalized data (SEAP) (LD3v1, A-1155463 10 nM): 34.145
- Raw data (SEAP) (LD3v1, A-1155463 10 nM): 20.3588
- Normalized data (SEAP) (LD3v1, A-1155463 31.6 nM): 55.6344
- Raw data (SEAP) (LD3v1, A-1155463 31.6 nM): 33.1716
- Normalized data (SEAP) (LD3v1, A-1155463 100 nM): 100
- Raw data (SEAP) (LD3v1, A-1155463 100 nM): 59.6244
- Normalized data (SEAP) (LD3v1, A-1155463 316 nM): 84.0823
- Raw data (SEAP) (LD3v1, A-1155463 316 nM): 50.1335
- Normalized data (SEAP) (LD3v1, A-1155463 1000 nM): 65.4287
- Raw data (SEAP) (LD3v1, A-1155463 1000 nM): 39.0114
- Normalized data (SEAP) (LD3v1, A-1155463 3160 nM): 35.6708
- Raw data (SEAP) (LD3v1, A-1155463 3160 nM): 21.2685
- Normalized data (SEAP) (LD3v1, A-1155463 10000 nM): 16.487
- Raw data (SEAP) (LD3v1, A-1155463 10000 nM): 9.83
- Normalized data (SEAP) (LD3v2, A-1155463 1 nM): 18.0278
- Raw data (SEAP) (LD3v2, A-1155463 1 nM): 19.4289
- Normalized data (SEAP) (LD3v2, A-1155463 3.16 nM): 13.8407
- Raw data (SEAP) (LD3v2, A-1155463 3.16 nM): 14.9163
- Normalized data (SEAP) (LD3v2, A-1155463 10 nM): 72.4321
- Raw data (SEAP) (LD3v2, A-1155463 10 nM): 78.0614
- Normalized data (SEAP) (LD3v2, A-1155463 31.6 nM): 98.2639
- Raw data (SEAP) (LD3v2, A-1155463 31.6 nM): 105.901
- Normalized data (SEAP) (LD3v2, A-1155463 100 nM): 100
- Raw data (SEAP) (LD3v2, A-1155463 100 nM): 107.772
- Normalized data (SEAP) (LD3v2, A-1155463 316 nM): 90.2158
- Raw data (SEAP) (LD3v2, A-1155463 316 nM): 97.2273
- Normalized data (SEAP) (LD3v2, A-1155463 1000 nM): 79.3099
- Raw data (SEAP) (LD3v2, A-1155463 1000 nM): 85.4738
- Normalized data (SEAP) (LD3v2, A-1155463 3160 nM): 45.5807
- Raw data (SEAP) (LD3v2, A-1155463 3160 nM): 49.1232
- Normalized data (SEAP) (LD3v2, A-1155463 10000 nM): 26.3886
- Raw data (SEAP) (LD3v2, A-1155463 10000 nM): 28.4395
- Normalized data (SEAP) (LD3v3, A-1155463 1 nM): 53.0121
- Raw data (SEAP) (LD3v3, A-1155463 1 nM): 3.893
- Normalized data (SEAP) (LD3v3, A-1155463 3.16 nM): 45.4436
- Raw data (SEAP) (LD3v3, A-1155463 3.16 nM): 3.337

Reference: article PMC11062894, “Protein-based bandpass filters for controlling cellular signaling with chemical inputs” (Nature Chemical Biology, 2023)
